These results are taken from patent publication US8697865B2, “Cyclic amide derivative, and its production and use” (Takeda Pharmaceutical Company Limited, priority 2004, dated 2014).

Structures can show the parent of a compound that is named as a salt.

The target of one data set is human FXa (Homo sapiens, UniProt P00742). Put plainly: Inhibitory action of human activated blood coagulation factor X (FXa). Particulars: chromogenic substrate S-2765, 37° C., absorbance at 405 nm, read-out: IC50 (concentration inhibiting FXa activity by 50%). Format: biochemical.

By melting point is commonly meant the temperature of the solid-liquid transition.

Sequence of human FXa (P00742 235-488 limits assumed): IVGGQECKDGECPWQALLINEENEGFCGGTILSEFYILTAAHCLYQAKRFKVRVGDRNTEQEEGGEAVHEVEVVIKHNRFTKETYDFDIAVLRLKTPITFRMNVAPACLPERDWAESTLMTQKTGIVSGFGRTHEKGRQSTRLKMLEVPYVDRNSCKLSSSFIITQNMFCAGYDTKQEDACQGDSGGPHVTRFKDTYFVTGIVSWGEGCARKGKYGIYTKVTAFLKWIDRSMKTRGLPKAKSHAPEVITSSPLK
Sequence of human FXa (P00742 41-179 partner limits assumed): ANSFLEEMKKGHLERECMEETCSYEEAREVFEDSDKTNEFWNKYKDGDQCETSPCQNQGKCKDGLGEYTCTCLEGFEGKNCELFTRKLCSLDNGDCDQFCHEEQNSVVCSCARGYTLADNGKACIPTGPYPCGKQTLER

Consider `N=C1CCCCN1C1CCN(C(=O)[C@H](O)CS(=O)(=O)c2ccc3cc(Cl)ccc3c2)CC1` [Example 43, (2S)-3-[(6-Chloronaphthalen-2-yl)sulfonyl]-1-(2-imino-1,4′-bipiperidin-1′-yl)-1-oxopropan-2-ol trifluoroacetate], for which the IC50 on human FXa worked out at 4.8 nM. For `O=C(CCS(=O)(=O)c1ccc2cc(Cl)ccc2c1)N1CCN(N2CCCNC2=O)CC1` [Example 33, 1-(1-{3-[(6-Chloronaphthalen-2-yl)sulfonyl]propanoyl}piperazin-4-yl)tetrahydropyrimidin-2(1H)-one], the IC50 on human FXa was determined as 9.9 nM.

On to `O=C([C@H](O)CS(=O)(=O)c1ccc2cc(Cl)ccc2c1)N1CCN(N2CCCNC2=O)CC1` [Example 25, 1-(4-{(2S)-3-[(6-Chloronaphthalen-2-yl)sulfonyl]-2-hydroxypropanoyl}piperazin-1-yl)tetrahydropyrimidin-2(1H)-one], for which, on human FXa, the IC50 is 4.2 nM.

In turn, `O=C([C@H](O)CS(=O)(=O)c1ccc2cc(Cl)ccc2c1)N1CCN(N2CCCCC2=O)CC1` [Example 8, 1-(4-{(2S)-3-[(6-Chloronaphthalen-2-yl)sulfonyl]-2-hydroxypropanoyl}piperazin-1-yl)piperidin-2-one] registered a melting point of 198 °C. Further, the IC50 at human FXa was 6.6 nM.
